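Following 48 hours of exposure in 96-well plates, responses at five concentrations were used to interpolate endpoints linearly. Abbreviation: GI50, concentration required for 50% inhibition of growth.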 Activity calls are given as the source filed them. Cut-off read from the data, not from the text of the source: active = GI50 up to about 1.1 µM and inactive = higher.
Assays:
Assay in all cases: growth of human tumour cells (NCI), 48 h
SNB-19 = tested on: SNB-19
NCI-H460 = tested on: NCI-H460
Malme-3M = tested on: Malme-3M
NCI-H522 = tested on: NCI-H522
UACC-257 = tested on: UACC-257
ACHN = tested on: ACHN
SK-MEL-2 = tested on: SK-MEL-2
HL-60 = tested on: HL-60
SK-MEL-5 = tested on: SK-MEL-5
NCI-H23 = tested on: NCI-H23
HCC 2998 = tested on: HCC 2998
SK-MEL-28 = tested on: SK-MEL-28
SF-268 = tested on: SF-268
A549 = tested on: A549
SK-OV-3 = tested on: SK-OV-3
UACC-62 = tested on: UACC-62
IGROV-1 = tested on: IGROV-1

Measured: GI50

NC1C(O)C(O)C(CO)OC1n1cc(F)c(=O)[nH]c1=O (centres undefined)
inactive: SNB-19 > 100 µM | NCI-H460 > 100 µM | Malme-3M > 100 µM | NCI-H522 > 100 µM | UACC-257 > 100 µM | ACHN > 100 µM | SK-MEL-2 > 100 µM | HL-60 > 100 µM | SK-MEL-5 > 100 µM | NCI-H23 > 100 µM | HCC 2998 > 100 µM | SK-MEL-28 > 100 µM | SF-268 > 100 µM | A549 > 100 µM | SK-OV-3 > 100 µM

CCCCCC(/C=C/c1ncccc1OCCCCCC(=O)O)=N\NC1=NCCN1
inactive: SNB-19 > 100 µM | NCI-H460 51.9 µM | Malme-3M > 100 µM | NCI-H522 50.8 µM | UACC-62 44.1 µM | IGROV-1 > 100 µM | ACHN > 100 µM | SK-MEL-2 48.9 µM | HL-60 57.8 µM | HCC 2998 > 100 µM | SK-MEL-28 > 100 µM | SF-268 > 100 µM | A549 > 100 µM | SK-OV-3 > 100 µM

CCOC(=O)C1S/C(=N\c2ccc(Cl)cc2Cl)N=C1C (centres undefined)
inactive: SNB-19 47.5 µM | NCI-H460 86.5 µM | Malme-3M 76.7 µM | NCI-H522 35.9 µM | UACC-62 46.9 µM | UACC-257 88.3 µM | IGROV-1 > 100 µM | ACHN 95.1 µM | SK-MEL-2 61.5 µM | HL-60 68.4 µM | SK-MEL-5 48.6 µM | NCI-H23 39.4 µM | HCC 2998 > 100 µM | SK-MEL-28 > 100 µM | SF-268 > 100 µM | A549 76.4 µM

Clc1cc2nsnc2c(Cl)n1
inactive: SNB-19 19 µM | NCI-H460 38.5 µM | Malme-3M 16.3 µM | NCI-H522 18.4 µM | UACC-62 26.5 µM | UACC-257 26.7 µM | IGROV-1 26.2 µM | ACHN 32.5 µM | SK-MEL-2 17.2 µM | HL-60 14.1 µM | SK-MEL-5 16.9 µM | NCI-H23 19.1 µM | HCC 2998 > 100 µM | SK-MEL-28 20.1 µM | SF-268 26.4 µM | A549 50 µM | SK-OV-3 2.62 µM

COC(=O)C1Cc2c([nH]c3ccccc23)C=N1 (centres undefined)
inactive: SNB-19 > 100 µM | NCI-H460 > 100 µM | Malme-3M > 100 µM | NCI-H522 > 100 µM | UACC-62 > 100 µM | UACC-257 > 100 µM | IGROV-1 > 100 µM | ACHN > 100 µM | HL-60 > 100 µM | SK-MEL-5 > 100 µM | NCI-H23 > 100 µM | HCC 2998 > 100 µM | SK-MEL-28 > 100 µM | SF-268 > 100 µM | A549 > 100 µM | SK-OV-3 > 100 µM

O=C1C(=C2CCCC2)CCC1CN1CCCCC1 (centres undefined)
inactive: SNB-19 > 100 µM | NCI-H460 > 10 µM | Malme-3M 16.3 µM | NCI-H522 1.77 µM | UACC-62 18.5 µM | UACC-257 19.4 µM | IGROV-1 18.4 µM | SK-MEL-2 16.5 µM | HL-60 4.63 µM | SK-MEL-5 18.2 µM | NCI-H23 18.7 µM | HCC 2998 16.3 µM | SK-MEL-28 17.5 µM | SF-268 19.5 µM | A549 > 100 µM

O=C(CC1Sc2ccccc2NC1=O)Nc1ccc(Cl)cc1 (centres undefined)
inactive: SNB-19 > 100 µM | NCI-H460 > 100 µM | Malme-3M 46.2 µM | NCI-H522 > 100 µM | UACC-62 23.9 µM | UACC-257 > 100 µM | IGROV-1 86.3 µM | ACHN 26.5 µM | SK-MEL-2 > 100 µM | HL-60 > 100 µM | SK-MEL-5 > 100 µM | NCI-H23 46.2 µM | HCC 2998 72.1 µM | SK-MEL-28 > 100 µM | SF-268 38.5 µM | A549 91.8 µM | SK-OV-3 > 100 µM

CN1C2CCC1/C(=C/c1cccc3c1OCO3)C(=O)/C2=C\c1cccc2c1OCO2
inactive: NCI-H460 > 100 µM | Malme-3M > 100 µM | UACC-62 14.3 µM | UACC-257 > 100 µM | IGROV-1 30.1 µM | ACHN > 100 µM | SK-MEL-2 > 100 µM | HL-60 > 100 µM | SK-MEL-5 37.9 µM | NCI-H23 > 100 µM | HCC 2998 > 100 µM | SK-MEL-28 > 100 µM | SF-268 47.6 µM | SK-OV-3 85.7 µM

CN1Cc2cc3c(cc2-c2ccccc21)OCO3
inactive: SNB-19 > 100 µM | NCI-H460 > 100 µM | NCI-H522 > 100 µM | UACC-62 > 100 µM | UACC-257 > 100 µM | IGROV-1 > 100 µM | ACHN > 100 µM | SK-MEL-2 > 100 µM | HL-60 > 100 µM | SK-MEL-5 > 100 µM | NCI-H23 > 100 µM | HCC 2998 > 100 µM | SK-MEL-28 > 100 µM | SF-268 > 100 µM | A549 > 100 µM | SK-OV-3 > 10 µM

COc1ccc(C(=O)C(C(=O)C(=O)NC2C3CC4CC(C3)CC2C4)c2ccc(OC)cc2)cc1 (centres undefined)
inactive: SNB-19 > 100 µM | NCI-H460 > 100 µM | Malme-3M > 100 µM | NCI-H522 > 100 µM | UACC-62 > 100 µM | UACC-257 > 100 µM | IGROV-1 > 100 µM | ACHN > 100 µM | SK-MEL-2 > 100 µM | HL-60 > 100 µM | SK-MEL-5 > 100 µM | NCI-H23 > 100 µM | HCC 2998 > 100 µM | SK-MEL-28 > 100 µM | SF-268 > 100 µM | A549 > 100 µM | SK-OV-3 > 100 µM

Cc1cc(N(CCC#N)CCC#N)ccc1/C=C(\NC(=O)/C=C/c1ccccc1)C(=O)Nc1ccccc1Cl
inactive: SNB-19 > 100 µM | NCI-H460 > 100 µM | Malme-3M > 100 µM | UACC-62 > 100 µM | UACC-257 > 100 µM | IGROV-1 > 100 µM | ACHN > 100 µM | SK-MEL-2 > 100 µM | HL-60 > 100 µM | SK-MEL-5 > 100 µM | NCI-H23 > 100 µM | HCC 2998 > 100 µM | SK-MEL-28 > 100 µM | SF-268 > 100 µM | A549 > 100 µM

Clc1ccccc1C(n1ncc2ccccc21)n1ncc2ccccc21
inactive: SNB-19 57.5 µM | NCI-H460 35.8 µM | Malme-3M 33.9 µM | NCI-H522 15.1 µM | UACC-62 > 10 µM | UACC-257 40.8 µM | IGROV-1 > 10 µM | ACHN 56.5 µM | SK-MEL-2 33.3 µM | HL-60 18.6 µM | SK-MEL-5 30.4 µM | NCI-H23 24 µM | HCC 2998 31.5 µM | SK-MEL-28 53.2 µM | SF-268 99.3 µM | SK-OV-3 > 10 µM

COC(=O)c1sc(=O)n(-c2ccccc2)c1SCc1ccccc1
inactive: SNB-19 > 100 µM | NCI-H460 > 100 µM | Malme-3M > 100 µM | NCI-H522 > 100 µM | UACC-62 > 100 µM | UACC-257 > 100 µM | IGROV-1 > 100 µM | ACHN > 100 µM | SK-MEL-2 > 100 µM | HL-60 > 100 µM | SK-MEL-5 > 100 µM | NCI-H23 > 100 µM | HCC 2998 > 100 µM | SK-MEL-28 > 100 µM | A549 > 100 µM | SK-OV-3 > 100 µM

Reference: ChEMBL document CHEMBL1201862, “PubChem BioAssay data set” (2004)
